Here are results for 9 compounds from patent US20260285853A1, “COMPOUNDS AND METHODS FOR MODULATING SPLICING” (REMIX THERAPEUTICS INC., priority 2023, published 2026).

Common to all, as to assay: Gene panel canonical junction qPCR assay, decrease in CJ mRNA, Table 3
Common to all, as to assay type: cell-based

One experiment deals with SMN2 mRNA. An outline of the steps: (§1)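 A673 (DMEM, 10% FBS, 15,000 cells/well) or K562 (IMDM, 10% FBS) cells treated 24 h at 37 °C with 11-point 3-fold dilutions, top 10 uM, DMSO ≤0.25%. Canonical exon-exon junction mRNA measured by RT-qPCR, normalized to GAPDH, GUSB or PPIA and DMSO (ΔΔCt); IC50 from 4-parameter logistic fit.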
The next experiment relates to MYB mRNA. An outline of the steps: as §1
For the next experiment, the system named is HTT mRNA. The gist of the method:
as §1

Where [1] appears, read: decrease in canonical junction (CJ) mRNA, gene panel qPCR, Table 3.
Where [2] appears, read: decrease in CJ mRNA levels, canonical junction qPCR, gene panel.

Bounds are passed on as bounds.

`CCNC1CCN(c2ccc(C(=O)Nc3cc(F)c4nc(COC)cn4c3)c3nn(C)cc23)CC1` [Compound 284, 4-[4-(ethylamino)-1-piperidyl]-N-[8-fluoro-2-(methoxymethyl)imidazo[1,2-a]pyridin-6-yl]-2-methyl-indazole-7-carboxamide]: the IC50 with SMN2 mRNA (setting [1]) lay within 100 to 1000 nM; with MYB mRNA (setting [1]), 1000 to 10000 nM; in the experiment on HTT mRNA (setting [1]), 1000 to 10000 nM.

For `COCCN[C@@H]1CCN(c2cc(O)c(C(=O)Nc3cc(F)c4nc(C)cn4c3)c3nn(C)cc23)C1` [Compound 285, N-(8-fluoro-2-methyl-imidazo[1,2-a]pyridin-6-yl)-6-hydroxy-4-[(3R)-3-(2-methoxyethylamino)pyrrolidin-1-yl]-2-methyl-indazole-7-carboxamide], the IC50 in the experiment on SMN2 mRNA (setting [1]) was below 100 nM; in the experiment with MYB mRNA (setting [1]), below 100 nM; in the experiment with HTT mRNA (setting [1]) it was above 10000 nM.

In the case of `Cc1cn2cc(NC(=O)c3c(O)cc(N4CC[C@@H](NC5CC5)C4)c4cn(C)nc34)cc(F)c2n1` [Compound 288, 4-[(3R)-3-(cyclopropylamino)-pyr-rolidin-1-yl]-N-(8-fluoro-2-methyl-imidazo[1,2-a]pyridin-6-yl)-6-hydroxy-2-methyl-indazole-7-carboxamide], the IC50 in the experiment with SMN2 mRNA (setting [1]) was below 100 nM; with MYB mRNA (setting [1]) it was below 100 nM; in the experiment with HTT mRNA (setting [1]), above 10000 nM.

As to `Cn1cc2cc(NC(=O)c3c(O)cc(N4CC[C@@H](NC5CC5)C4)c4cn(C)nc34)cc(F)c2n1` [Compound 291, 4-[(3R)-3-(cyclopropylamino)pyrrolidin-1-yl]-N-(7-fluoro-2-methyl-indazol-5-yl)-6-hydroxy-2-methyl-indazole-7-carboxamide], the half-maximal inhibitory concentration (IC50) in the experiment on SMN2 mRNA (setting [1]) is below 100 nM; in the experiment with MYB mRNA (setting [1]), below 100 nM; in the experiment with HTT mRNA (setting [1]), 1000 to 10000 nM.

`CCN[C@@H]1CCN(c2cc(O)c(C(=O)Nc3cc(F)c4nn(C)cc4c3)c3nn(C)cc23)C1` [Compound 294, 4-[(3R)-3-(ethylamino)-pyrrolidin-1-yl]-N-(7-fluoro-2-methyl-indazol-5-yl)-6-hydroxy-2-methyl-indazole-7-carboxamide]: the IC50 in the experiment on SMN2 mRNA (setting [1]) was below 100 nM; in the experiment on MYB mRNA (setting [1]), below 100 nM; in the experiment with HTT mRNA (setting [1]), 100 to 1000 nM.

As to `Cc1cn2cc(NC(=O)c3ccc(N4CCC(NC5CC5)CC4)c4cn(C)nc34)nc2c(C)n1` [Compound 297, 4-[4-(cyclopropylamino)-1-piperidyl]-N-(6,8-dimethylimidazo[1,2-a]pyrazin-2-yl)-2-methyl-indazole-7-carboxamide], the concentration for half-maximal inhibition (IC50) with SMN2 mRNA (setting [1]) was below 100 nM; with MYB mRNA (setting [1]), 100 to 1000 nM; with HTT mRNA (setting [1]), above 10000 nM.

Take `COc1c(NC(=O)c2ncc(N3CCNCC3)c3cn[nH]c23)cn2cc(C)nc2c1F` [Compound 606, N-(8-fluoro-7-methoxy-2-methyl-imidazo[1,2-a]pyridin-6-yl)-4-piperazin-1-yl-1H-pyrazolo[3,4-c]pyridine-7-carboxamide]: the 50% inhibitory concentration (IC50) in the experiment on SMN2 mRNA (setting [2]) is 100 to 1000 nM; in the experiment on MYB mRNA (setting [2]), above 10000 nM; with HTT mRNA (setting [2]), above 10000 nM.

On to `COc1c(NC(=O)c2c(F)cc(N3CCNCC3)c3cn[nH]c23)cn2cc(C)nc2c1F` [Compound 607, 6-fluoro-N-(8-fluoro-7-methoxy-2-methyl-imidazo[1,2-a]pyridin-6-yl)-4-piperazin-1-yl-1H-indazole-7-carboxamide], for which the IC50 in the experiment on SMN2 mRNA (setting [2]) was below 100 nM; with MYB mRNA (setting [2]), below 100 nM; in the experiment with HTT mRNA (setting [2]), 100 to 1000 nM.

As to `Cc1cn2cc(NC(=O)c3ccc(N4C[C@@H](C)N[C@@H](C)C4)c4c3nnn4C)cc(F)c2n1` [Compound 635], the IC50 was below 100 nM with SMN2 mRNA (setting [2]), 100 to 1000 nM in the experiment with MYB mRNA (setting [2]) and 1000 to 10000 nM with HTT mRNA (setting [2]).
